Tests used:
wt PKAcα [1] = biological target: T1, wt PKAcα (Homo sapiens, UniProt P17612); details: 20 mM MOPS pH 7.0, 150 mM NaCl; ATP 0-0.75 mM
wt PKAcα [2] = biological target: T1, wt PKAcα; details: 1 mM ATP, 10 mM MgCl2, 20 mM MOPS pH 7.0, 150 mM NaCl, 0.5 °C/min

What does the source list for `Nc1ncnc2c1ncn2[C@@H]1O[C@H](COP(=O)(O)OP(=O)(O)OP(=O)(O)O)[C@@H](O)[C@H]1O` [ATP]?
dissociation constant (wt PKAcα [1]): ATP dissociation constants were determined using the ThermoFluor assay.; thermal shift (wt PKAcα [2]): stabilities of apo PKAcα or J-PKAcα subunits and its ATP and/or peptide binding forms
